Laboratory results published in patent publication US20250154140A1 (Sunnybrook Research Institute, priority 2022, published 2025).

What was measured:
BAX = BAX (Homo sapiens, UniProt Q07812); test: Permeabilization of isolated mitochondria, Smac-mCherry release (cBID activated BAX); assay type: biochemical, mouse; set-up: made in house; host or cells: Escherichia coli BL21-AI; settings: concentrations up to 60 uM
Method: Animal breeding and handling was performed in accordance with local regulations after approval by the Animal Care Committee at Sunnybrook Research Institute, Toronto. The isolation of mouse-liver mitochondria, and use with Bcl-2 family proteins to measure activity and protein-protein interactions was previously described in detail (Pogmore et al., 2016). In mouse liver, BAX is either cytoplasmic or loosely bound to mitochondria. Therefore, BAX is not present in isolated mitochondria. For this reason, when mitochondria are isolated from liver from BAK−/− mice they contain neither BAX or BAK. […] The supernatant was discarded, and the remaining pellet is resuspended in regeneration buffer (300 mM Trehalose, 10 mM HEPES-KOH pH 7.7, 80 mM KCl, 1 mM EGTA, 1 mM EDTA, 0.1% BSA, 5 mM succinate, 2 mM ATP, 10 μM phosphocreatine, and 10 μg/mL creatine kinase) at a protein concentration of 1 mg/mL, (determined by Bradford assay) for immediate use as the source of membranes for FRET measurements. […]
For BAX^−/−/BAK^−/−BMK SMAC-mCherry mitochondria, 2 nM cBID and 20 nM BAX was used to fully permeabilize the mitochondria. […] The percentage of SMAC-mCherry release was determined by fluorometric analysis of the supernatant and pellet fractions by measuring the fluorescence intensity (F) of mCherry (excitation 580, emission 610 in a Tecan M1000).

FL EGFR = biological target: T1, FL EGFR (Homo sapiens, UniProt P00533); test: EGFR kinase assay (ADP-Glo); assay type: biochemical
T1 construct: kinase domain of EGFR (amino acids 695-1210); purchased Promega V3831
T1 sequence (P00533 695-1210): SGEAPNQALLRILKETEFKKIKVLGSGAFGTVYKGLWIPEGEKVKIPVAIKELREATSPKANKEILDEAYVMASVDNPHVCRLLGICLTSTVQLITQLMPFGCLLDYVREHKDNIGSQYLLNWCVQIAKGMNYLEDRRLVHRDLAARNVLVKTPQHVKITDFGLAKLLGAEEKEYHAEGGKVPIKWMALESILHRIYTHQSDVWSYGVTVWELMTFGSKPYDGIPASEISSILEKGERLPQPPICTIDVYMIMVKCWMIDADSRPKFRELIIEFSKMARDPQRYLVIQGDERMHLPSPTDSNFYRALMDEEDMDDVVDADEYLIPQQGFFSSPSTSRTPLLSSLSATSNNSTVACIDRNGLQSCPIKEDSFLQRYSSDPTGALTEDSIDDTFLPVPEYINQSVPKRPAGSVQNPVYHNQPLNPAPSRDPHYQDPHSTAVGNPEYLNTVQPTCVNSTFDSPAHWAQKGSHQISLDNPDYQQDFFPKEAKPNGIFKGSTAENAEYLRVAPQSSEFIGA
Method: A peptide containing the kinase domain of EGFR (amino acids 695-1210) was used to assess the inhibitory potency of the inhibitors. The ADP-Glo kinase assay (Promega V9101), and the EGFR kinase enzyme (Promega V3831) were used according to the supplier's instructions. Briefly, […] reactions were assembled in wells of a 384 well plate as follows: 5 μL of the kinase reaction, 5 μL of the ADP depletion reagent, and 10 μL of the luciferase reagent. For the kinase reaction: 1 μL of the inhibitor (dissolved in DMSO) was mixed with 2 μL EGFR peptide ([…]), 1 μL of a poly Glu4Tyr1 peptide (0.2 μg/μL), 1 μL reaction buffer, and 1 μL of ATP (final concentration of 5 μM). The kinase reaction was incubated at room temperature for 1 hour. 5 μL of the ATP depletion/kinase terminating reagent was mixed into each well and incubated at room temperature for 40 minutes. 10 μL of the kinase detection reagent containing luciferase was mixed into each well and incubated at room temperature for 30 minutes for bioluminescent detection of ADP produced from the kinase reaction in step 1. Bioluminescent signal was detected in a Tecan Safire^2 with a black plug covering the excitation filter, and an empty emission filter. The integration time was increased to […] to detect enough luminescence per reading.

[1] = tested on: Baby Mouse Kidney (BMK) cells; test: Actinomycin D / spontaneous cell death assay in BMK cells; assay type: cell-based; settings: for tolerability by the cells: BMKwt cells; for effect on spontaneous cell death / effect on actinomycin D induced cell death: BMKwt; for effect on spontaneous cell death: 0 mM actinomycin D; for effect on actinomycin D induced cell death: 3.125, 6.25, 12.5 nM actinomycin D
Method: Baby Mouse Kidney (BMK) cells were from (Mathew et al., 2008). BMK double knockout, SMAC-mCherry, and BAX^−/− cell lines were generated in house as described (Niu et al., 2017). BMK lines were grown in DMEM supplemented with 10% Fetal Bovine Serum and 1×MEM non-essential amino acids in a humidified incubator at 37° C. and 5% CO2.
For cell death assays with actinomycin D, 3000 WT or DKO BMK cells were cultured in a 384 well plate and incubated overnight. The next morning, cells were treated with actinomycin D for 2 hours before the addition of BAX inhibitor. Actinomycin D and BAX inhibitor (where relevant) were then incubated for 24 hours before staining with Hoechst, AnnexinV-Alexa488, and TMRE for 30 minutes. Cells were imaged by confocal microscopy (Opera Phenix—PerkinElmer) and subsequently analyzed with Harmony (PerkinElmer) software. Cell death was scored by three criteria: the loss of TMRE signal, the appearance of AnnexinV-Alexa488 signal, and nuclear shrinkage visualized by Hoechst.

Chain of BAX (Q07812 whole entry): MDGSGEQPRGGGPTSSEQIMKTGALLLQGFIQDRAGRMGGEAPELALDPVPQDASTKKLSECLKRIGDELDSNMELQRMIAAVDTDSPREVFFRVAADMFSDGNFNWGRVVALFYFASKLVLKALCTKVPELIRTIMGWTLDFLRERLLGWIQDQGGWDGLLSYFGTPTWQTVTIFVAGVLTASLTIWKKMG

Row | SMILES | inhibition of BAX mediated permeabilization of mitochondria (BAX) | kinase inhibitory activity (FL EGFR; at or below 10 uM) | inhibition of actinomycin D mediated cell death in cells expressing either BAX or BAK ([1]; 1.25 or 2.5 uM compound, actinomycin D 25 nM (wild-type), 100 nM (knock-out)) | tolerability by the cells [1] | effect on spontaneous cell death [1] | effect on actinomycin D induced cell death [1] | Hill Slope (FL EGFR; FL EGFR) | spontaneous cell death in culture ([1]; BMK-wt, 0 nM actinomycin D, from ~30% without compound)
1 | COc1cc2ccnc(Nc3ccc(F)c(Cl)c3)c2cc1NC(=O)CCCN1CCCCC1 [Compound I-1, N-(1-((3-chloro-4-fluorophenyl)amino)-6-methoxyisoquinolin-7-yl)-4-(piperidin-1-yl)butanamide] | equally effective inhibitors | no appreciable kinase inhibitory activity | most effective inhibitor | well-tolerated | reduced the amount of spontaneous cell death | reduced cell death |  | 
2 | COc1cc2ncnc(Nc3ccc(F)c(Cl)c3)c2cc1NC(=O)/C=C/CN1CCCCC1 [Dacomitinib, reference compound] | equally effective inhibitors |  |  | well-tolerated | reduced the amount of spontaneous cell death | reduced cell death | −1.3 | < 10%
